# From US20120214736A1, “COMPOSITIONS AND METHODS FOR THE MODULATION OF JNK PROTEINS” (Isis Pharmaceuticals, Inc., priority 2006, published 2012)
# e = 2'-O-(2-methoxyethyl) (MOE); d = 2'-deoxy (DNA)
# Experiments:
# Format in all cases: cell-based
# [1] = system: human JNK2 mRNA; assay: Northern analysis, human JNK2 mRNA in HuVEC cells (time course); details: 100 nM; 0-72 hours
# Protocol: The human umbilical vein endothilial cell line HuVEC was obtained from Clonetics (Clonetics Corporation Walkersville, Md.). HuVEC cells were routinely cultured in EBM (Clonetics Corporation Walkersville, Md.) supplemented with SingleQuots supplements (Clonetics Corporation, Walkersville, Md.). […] Cells were seeded into 100 mm dishes and incubated overnight at 37° C./5% CO2. (Falcon-Primaria #3872).
# (§1) When cells reached 70% confluency, they were treated with oligonucleotide. For cells grown in 10 cm dishes, cells were washed once with 5 ml PBS and then treated with 5 ml of OPTI-MEM-1 containing 3 ul LIPOFECTIN (Invitrogen Corporation, Carlsbad, Calif.)/100 nM oligonucleotide/ml OPTI-MEM-1. For other oligonucleotide concentrations the oligonucleotide/Lipofectin ration was held constant. […] Cells were harvested 16-24 hours after oligonucleotide treatment.
# In accordance with the present invention, HuVEC cells were treated with 100 nM ISIS 101759 or the control oligonucleotide and mRNA levels of human JNK2 were monitored over a time-course of 0-72 hours and quantitated by Northern analysis.
# [2] = system: human JNK2 mRNA; assay: Northern analysis, human JNK2 mRNA in HeLa cells (dose response); details: 10, 50 or 200 nM
# Protocol: The human cervix epithelial adenocarcinoma cell line HeLa was obtained from the American Type Culture Collection (Manassas, Va.). HeLa cells were routinely cultured in Minimum essential medium (Eagle) with 2 mM L-glutamine and Earle's BSS adjusted to contain 1.5 g/L sodium bicarbonate, 0.1 mM non-essential amino acids, and 1.0 mM sodium pyruvate, 90%; fetal bovine serum, 10% at a temperature of 37° C. Cells were seeded into 100 mm dishes and incubated overnight at 37° C./5% CO2
# as §1
# In accordance with the present invention, HeLa cells were treated with 10, 50 or 200 nM ISIS 101759 or the control oligonucleotide and mRNA levels of human JNK2 were quantitated by Northern analysis.
# [3] = system: human JNK2 mRNA; assay: Northern analysis, human JNK2 mRNA in Jurkat cells (electroporation, dose response); details: 1, 5 or 20 uM
# Protocol: Jurkat cells were routinely cultured in RPMI Medium 1640 (Gibco/Life Technologies, Gaithersburg, Md.) supplemented with 20% fetal calf serum (Gibco/Life Technologies, Gaithersburg, Md.). Cells were routinely passaged by aspirating media that contained excess cells and replenishing with new media.
# For electroporation, cells were diluted to 28×10^6 cells/mL and placed into 1 mm electroporation cuvettes. Electroporation is performed by treating with 1-20 μM oligonucleotide, at 160 Volts for 6 msec. The entire electroporated samples are then placed into 5 mL of 10% FBS/RPMI Medium 1640 in 100 mm plates. Plates are then left overnight at 37° C./5% CO2.
# Each sample is then transferred to 15 mL conical tubes and spun down at 1200 rpm for 5 minutes followed by aspiration of the supernatant. Cells are then suspended in 5 mL PBS followed by a second centrifugation at 1200 rpm for 5 minutes followed by aspiration of the supernatant. Cells are then washed and lysed. Following the lysis step, total cellular RNA is then isolated using the RNEASY kit (Qiagen, Santa Clarita, Calif.) as described in other examples herein.
# In accordance with the present invention, Jurkat cells were treated by electroporation with 1, 5 or 20 uM ISIS 101759 or the control oligonucleotide and mRNA levels of human JNK2 were quantitated by Northern analysis.
substance,measurement,setting,value
"GsCsTsCsAsGsTsGsGsAsCsAsTsGsGsAsTsGsAsG (GCTCAGTGGACATGGATGAG; sugars from the 5' end e5 d10 e5, all phosphorothioate, methylation of C not given here) [ISIS 101759]",expression of human JNK2 in HuVEC cells,[1],capable of reducing the expression of human JNK2
same,expression of human JNK2 in HeLa cells,[2],capable of reducing the expression of human JNK2 in human HeLa cells in a dose-dependent manner
same,expression of human JNK2 in Jurkat cells,[3],capable of reducing the expression of human JNK2 in human Jurkat cells in a dose-dependent manner
